The source of these data is patent publication US5698532A, “Pyrimidine nucleosides and methods for treating viral infections with same” (priority 1995, dated 1997).

Molecules are shown by their SMILES. Like-named read-outs stand apart in the source and are kept apart here.

In one data set the target is HSV-2 thymidine kinase (Human herpesvirus 2, UniProt P89446). Description: inhibition of HSV-2 thymidine kinase. In kind it is biochemical. As for the experimental part:
In this test procedure, the assay mixture contains 50 mmol Tris HCl, pH 8, 5 mmol magnesium chloride, 5 mmol ATP, 0.3 μmol ^3 H-thymidine (50 Ci/mmol), suitably diluted enzyme preparation and various concentrations of test compounds in a total volume of 100 μl. Assays are incubated at 37° C. for 30 minutes and the reaction is terminated by immersion in a boiling water bath for 2 minutes. 85 μl aliquots from each assay are then dried on to DEAE-cellulose paper discs and the unphosphorylated ^3 H-thymidine is removed by washing in 4 mmol ammonium formate. The radioactivity remaining bound to the discs is then measured by scintillation spectrophotometry. The degree of inhibition at each concentration of test compound is expressed as a percentage of the control reaction (100%) after subtracting a measured blank value which represents the amount of radioactivity bound to the disc from a reaction containing heat-inactivated enzymes. The lC50 value, namely the concentration of test compound which inhibits enzyme activity by 50%, is then calculated.

Data set [1] in a line: Oral bioavailability (rat). In kind it is in vivo. The conditions noted are these: for bioavailability: in vivo, po.
[2] abbreviates: 37° C., 30 minutes, pH 8, 3H-thymidine, read-out: Activity against HSV-2 TK, IC50.

Broadly, the IC50 is the midpoint of a concentration-inhibition curve. As usually defined, the bioavailability is dose-corrected exposure relative to a reference, in per cent.

HSV-2 thymidine kinase, sequence (P89446 whole entry): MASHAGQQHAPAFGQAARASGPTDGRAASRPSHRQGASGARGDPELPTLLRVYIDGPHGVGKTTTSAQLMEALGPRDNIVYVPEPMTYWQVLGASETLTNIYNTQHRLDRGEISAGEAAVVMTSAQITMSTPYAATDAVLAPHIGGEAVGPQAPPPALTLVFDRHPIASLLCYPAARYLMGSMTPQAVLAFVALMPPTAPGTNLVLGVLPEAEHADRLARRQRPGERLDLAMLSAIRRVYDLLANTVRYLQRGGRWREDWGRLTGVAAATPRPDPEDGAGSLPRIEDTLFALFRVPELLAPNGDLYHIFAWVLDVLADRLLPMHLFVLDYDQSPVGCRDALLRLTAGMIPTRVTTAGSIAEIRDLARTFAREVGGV

`CCc1cn([C@H]2C[C@H](O)[C@@H](CNC(=O)C(C)Oc3ccc(Cl)cc3Cl)O2)c(=O)[nH]c1=O` (mixture of isomers) [Compound A]: at HSV-2 thymidine kinase (setting [2]), the IC50 came to 3.7 nM.
With `CCc1cn([C@@H]2O[C@H](CNC(=O)C(C)Oc3ccc(Cl)cc3Cl)[C@@H](O)[C@@H]2F)c(=O)[nH]c1=O` (mixture of isomers) [Compound B], the IC50 on HSV-2 thymidine kinase (setting [2]) was 4 nM.
`CCc1cn([C@H]2C[C@H](O)[C@@H](CNC(=O)C(C)Oc3ccc(Cl)cc3Cl)O2)c(=O)[nH]c1=O` (single isomer, unassigned) [Compound A, diastereoisomer a] had a bioavailability in data set [1] of 2.84%.
Still for that read-out and setting: next, `CCc1cn([C@@H]2O[C@H](CNC(=O)C(C)Oc3ccc(Cl)cc3Cl)[C@@H](O)[C@@H]2F)c(=O)[nH]c1=O` (single isomer, unassigned) [Compound B, diastereoisomer a]: 14.4%.
As to `CCc1cn([C@@H]2O[C@H](CNC(=O)C(C)Oc3ccc(Cl)cc3Cl)[C@@H](O)[C@@H]2F)c(=O)[nH]c1=O` (single isomer, unassigned) [Compound B, diastereoisomer b], the “Oral bioavailability (rat)” value in data set [1] was 12.9%.
On the same count and under the same terms, next, `CCc1cn([C@H]2C[C@H](O)[C@@H](CNC(=O)C(C)Oc3ccc(Cl)cc3Cl)O2)c(=O)[nH]c1=O` (single isomer, unassigned) [compound A, diastereoisomer b]: “too low to calculate”.
As to `CCc1cn([C@@H]2O[C@H](CNC(=O)[C@H](C)Oc3cc(OC)c(Cl)cc3Cl)[C@@H](O)[C@@H]2F)c(=O)[nH]c1=O` [Compound (I), 1-[5-[2(S)-(2,4-dichloro-5-methoxy-phenoxy)propionamido]-2,5-dideoxy-2-fluoro-β-D-arabino-furanosyl]-5-ethyluracil], the IC50 on HSV-2 thymidine kinase is 0.18 nM. The molecule also had a bioavailability in data set [1] of 26%.
